Literature values, collected in patent US20190367426A1, “LIQUID UREASE INHIBITOR FORMULATIONS” (YARA INTERNATIONAL ASA, priority 2017, published 2019).

Test system: rat

| Compound | toxicity oral rat LD50 |
| --- | --- |
| COCCOCCO [DEGMME, Diethylene glycol monomethyl ether] | 6450 mg/kg |
| CCCCOCCOCCO [DEGMBE, Diethylene glycol monobutyl ether] | 5660 mg/kg |
